Our source for the IC50 values is patent US20220144812A1, “QUINOLINE DERIVATIVES AND THEIR USE FOR THE TREATMENT OF CANCER” (Epizyme, Inc., priority 2019, published 2022).

In general, IC50 refers to the midpoint of a concentration-inhibition curve.

T1 sequence (Q92793 1084-1701): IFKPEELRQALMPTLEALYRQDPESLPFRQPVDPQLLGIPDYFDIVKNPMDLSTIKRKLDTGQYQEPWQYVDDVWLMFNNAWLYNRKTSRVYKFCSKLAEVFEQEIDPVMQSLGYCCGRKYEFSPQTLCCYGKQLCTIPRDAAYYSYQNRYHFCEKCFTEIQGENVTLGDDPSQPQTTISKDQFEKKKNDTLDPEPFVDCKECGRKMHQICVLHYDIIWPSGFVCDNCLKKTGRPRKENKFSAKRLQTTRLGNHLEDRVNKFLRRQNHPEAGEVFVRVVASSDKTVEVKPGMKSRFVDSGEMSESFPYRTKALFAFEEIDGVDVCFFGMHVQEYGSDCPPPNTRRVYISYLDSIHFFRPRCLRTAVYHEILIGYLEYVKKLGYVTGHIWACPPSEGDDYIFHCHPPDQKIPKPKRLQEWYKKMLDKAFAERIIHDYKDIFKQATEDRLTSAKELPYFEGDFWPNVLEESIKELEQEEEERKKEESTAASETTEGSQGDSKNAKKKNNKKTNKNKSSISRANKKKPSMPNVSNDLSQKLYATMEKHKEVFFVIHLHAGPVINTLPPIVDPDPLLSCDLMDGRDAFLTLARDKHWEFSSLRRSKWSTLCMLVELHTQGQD

The experiment has as its target T1, CREBBP (1084-1701) (Homo sapiens, UniProt Q92793).
T1 construct: measured in the following biochemical assay using CREBBP (1084-1701); purchased
Put plainly: Biochemical assay for CREBBP (1084-1701), SAMDI. Conditions: SAMDI, read-out: CREBBP Biochemistry IC50. The source says: The following example describes materials and methods relating to a biochemical assay for CREBBP (1084-1701). IC50 values (micromolar (μM)) are summarized in Table 1, Table 2, and Table 3 under the column labeled: “CREBBP Biochemistry IC50 (micromolar).”
MATERIALS: Reagents 1M Tris pH 8.0, Tween 20 10%, DTT, bovine serum gelatin (BSG) 2%, Peptide #233 (biotin-H3 11-25, K14R, K23R), Acetyl-CoA, CREBBP (1084-1701), formic acid (100%), and sodium bicarbonate were commercially available.
METHODS: The effect of compounds was measured in the following biochemical assay using CREBBP (1084-1701). Enzyme mix 30 μL per well was added using a Multi-drop to wells of prepared Compound Stock plate. The enzyme was incubated in the Compound Stock plate for 30 minutes at room temperature. Substrate mix, 20 μL per well, was added to Compound Stock plate using a Multi-drop. The plate was covered and incubate 30 minutes at room temperature. The reaction was stopped with addition of 5 μL per well of 5% formic acid using a Multi-drop. The plate was Incubated for 30 minutes at room temperature. The reaction mixture was neutralized with addition of 5 μL per well of 10% sodium bicarbonate using a Multi-drop. The plate was Incubated for 35 minutes at room temperature. The reaction mixture was Transferred 2.5 μL per well to a SAMDI biochip. The plate was Incubated for 60 minutes at room temperature. The samples were washed, dried, and matrix applied to SAMDI biochip. The SAMDI biochip was then read on the mass spectrometer.
`CCn1nnc(CN(C)C(=O)c2cc(-c3ccccc3Cl)nc3ccc(Cl)cc23)c1C` [Compound 291]: the concentration for half-maximal inhibition (IC50) was determined as 89 µM.

As to `CCn1nnc(CN(C)C(=O)c2nc(-c3ccccc3Cl)nc3ccc(Cl)cc23)c1C` [Compound 292], the IC50 worked out at 50 µM.

As to `CCc1n[nH]c(CN(C)C(=O)c2cc(-c3ccccc3Cl)nc3ccc(Cl)cc23)c1C` [Compound 298], the IC50 turned out to be 31 µM.

In the case of `Cc1c(CN(C)C(=O)c2cc(-c3cccc(Cl)c3)nc3ccccc23)cnn1C(C)C` [Compound 304], the IC50 stood at 43 µM.

On to `CCn1ncc(CN(C)C(=O)c2nc(-c3cccc(Cl)c3)nc3ccc(F)cc23)c1C` [Compound 309], for which the IC50 is 1.8 µM.

As for `CCn1ncc(CN(C)C(=O)c2nc(-c3ccccc3Cl)nc3ccc(C#N)cc23)c1C` [Compound 310], the IC50 is 48 µM.

As for `CCn1ncc(CN(C)C(=O)c2cc(-c3cccc(Cl)c3)nc3ccc(N)cc23)c1C` [Compound 311], the IC50 was 18 µM.

As to `CCOc1ccc2nc(-c3cccc(Cl)c3)cc(C(=O)N(C)Cc3cnn(CC)c3C)c2c1` [Compound 319], the IC50 came out at 120 µM.

For the compound `CCn1ncc(CN(C)C(=O)c2cc(-c3ccc[nH]3)nc3ccc(Cl)cc23)c1C` [Compound 320], the IC50 amounted to 51 µM.

For the compound `CCn1ncc(CN(C)C(=O)c2cc(-c3ccccc3Cl)nc3cc(OC)ccc23)c1C` [Compound 322], the IC50 is 134 µM.

Turning to `CCn1ncc(CN(C)C(=O)c2cc(-c3cccnc3)nc3ccc(Cl)cc23)c1C` [Compound 325], the IC50 came to 55 µM.

Consider `CCn1ncc(CN(C)C(=O)c2cc(-c3ccccn3)nc3ccccc23)c1C` [Compound 326], for which the IC50 turned out to be 40 µM.

As for `CCn1ncc(CN(C)C(=O)c2nc(-c3ccccn3)nc3cc(Cl)ccc23)c1C` [Compound 327], the IC50 amounted to 152 µM.

As for `CCc1ccc2nc(-c3cccc(Cl)c3)cc(C(=O)N(C)Cc3cnn(CC)c3C)c2c1` [Compound 328], the IC50 was found to be 0.29 µM.

Regarding `CCn1ncc(CN(C)C(=O)c2cc(-c3cccc(C#N)c3)nc3ccc(Cl)cc23)c1C` [Compound 332], the IC50 was 27 µM.

Take `CCn1ncc(CN(C)C(=O)c2nc(-c3cc(Cl)ccn3)nc3ccc(Cl)cc23)c1C` [Compound 333]: the IC50 was found to be 3.9 µM.

Consider `CCn1ncc(CN(C)C(=O)c2nc(-c3cnn(C)c3)nc3ccc(Cl)cc23)c1C` [Compound 339], for which the IC50 is 29 µM.

Turning to `CCn1ncc(CN(C)C(=O)c2cc(-c3ccccc3Cl)nc3c(C)cccc23)c1C` [Compound 340], the IC50 is 40 µM.

Consider `CCn1ncc(CN(C)C(=O)c2cc(-c3cncc(Cl)c3)nc3ccc(Cl)cc23)c1C` [Compound 341], for which the IC50 was 12 µM.

With `CCn1ncc(CN(C)C(=O)c2cc(-c3ccccc3)nc3ccccc23)c1C` [Compound 343], the IC50 came to 176 µM.

`CCn1ncc(CN(C)C(=O)c2nc(-c3ccccc3Cl)nc3cc(Cl)ccc23)c1C` [Compound 344]: the IC50 stood at 45 µM.

Consider `CCn1ncc(CN(C)C(=O)c2cc(-c3ncccc3OC)nc3ccc(Cl)cc23)c1C` [Compound 345], for which the IC50 stood at 72 µM.

Take `CCn1ncc(CN(C)C(=O)c2nc(-c3ncccc3OC)nc3ccc(Cl)cc23)c1C` [Compound 348]: the IC50 amounted to 21 µM.

In the case of `CCn1ncc(CN(C)C(=O)c2cc(-c3ccccc3OC)nc3ccccc23)c1C` [Compound 351], the IC50 came out at 32 µM.

On to `CCn1ncc(CN(C)C(=O)c2cc(-c3cccc(Cl)c3)nc3ccccc23)c1C` [Compound 352], for which the IC50 came to 41 µM.

Take `CCn1ncc(CN(C)C(=O)c2cc(-c3cccc(C)c3)nc3ccccc23)c1C` [Compound 353]: the half-maximal inhibitory concentration (IC50) stood at 84 µM.

In the case of `CCn1ncc(CN(C)C(=O)c2cc(-c3cccc(Cl)c3)nc3ccccc23)c1C` [Compound 354], the IC50 turned out to be 38 µM.

Turning to `CCn1ncc(CN(C)C(=O)c2nc(-c3ccc(OCCCN(C)C(=O)OC(C)(C)C)c(OC)c3)nc3ccc(Cl)cc23)c1C` [Compound 355], the IC50 was determined as 3.8 µM.

For the compound `CCn1ncc(CN(C)C(=O)c2cc(-c3cccnc3)nc3ccc(Cl)cc23)c1C` [Compound 364], the IC50 amounted to 34 µM.
